Assay results: patent US6458806B1, “Aryl alkenamides derivatives as MCP-1 antagonists” (Millennium Pharmaceuticals, Inc., priority 1996, dated 2002)
Structures can show the parent of a compound that is named as a salt.

System: T cell recruitment to skin DHR sites
Test: Inhibition of T cell recruitment to rat skin inflammatory (DHR) sites
Type: in vivo
Method: Inhibition of T Cell Recruitment to Rat Skin Inflammatory Sites by Compound 1
Inbred, approximately 200 gm, male Lewis rats were used in all experiments. Cutaneous delayed hypersensitivity (DHR) was induced as previously described (1). Briefly, rats were sensitized to KLH (Sigma Chemical Co., St. Louis, Mo.) by administering 50 μg KLH in 0.1 ml complete Freund's adjuvant (CFA; Sigma Chemical Co.) into each of 4 subcutaneous sites. After 14 days, DHR was elicited by the challenge of 5 μg KLH in PBS into multiple intradermal sites on the back. Analysis was performed 24 hours after antigen challenge. For each experiment, there were at least three groups of animals of at least four animals in each group. […]
T cell recruitment at sites of DHR was quantified using methods previously described (1-4). […] The cells in the effluent were highly purified (>95%) rat T cells as assessed by anti-rat CD3 (monoclonal antibody KT3, Biosource International, Camarillo, Calif.) immunoreactivity by flow cytometry. […] Skin challenge sites (8 mm in diameter) were counted on a γ counter 24 hours after injection of radiolabeled T cells. Lung, liver, and spleen were also collected and counted as comparative indices for evaluation of input.
Statistical significance was determined using a paired Student's t-test. […]

For `O=C(/C=C/C=C/c1ccc(Cl)c(Cl)c1)NCCCN1CCCCC1` [Example 1, 5-(3,4-Dichloro-phenyl)-penta-2,4-dienoic Acid (3-piperidin-1-yl-propyl)-amide-HCl], the “inhibition of T cell recruitment in rat DHR (result in words)” value (30 mg/kg per os at time of antigen challenge, 24 hour period, FIG. 2) was “statisticallly significant inhibitory effect” and the “inhibition of recruitment of 111In-labeled rat T cells to skin DHR sites” value (Lewis rats, 30 mg/kg once per os at time of antigen (KLH) challenge, 24 hours, P<0.05, dose-dependent) was “approximately 80%”.
